The source of these data is patent US20080280983A1, “METHODS OF TREATING RETT SYNDROME” (CeNeRx BioPharma, priority 2007, published 2008).

The test system of data set [1] is electroshock-induced convulsions. Put plainly: Electroshock-induced convulsions in rats. The format is in vivo, rat. As to conditions: 30 minutes before shock. As for the experimental part:
Male rats were studied using the method described by E. Chojnacka-Wojcik (Pol. J. Pharmacol. Pharm., 35:511-15, 1983), herein incorporated by reference in its entirety.
At 30 minutes after dosing, the animals were given a non-lethal electric shock (50 Hz, 50 mA, impulse train duration 0.2 s via corneal electrodes wetted in normal saline). […] The frequency of tonic and clonic convulsions among the treatment groups was analyzed using the Yates chi-square test .

Data set [2] concerns pentetrazol-induced convulsions. Put plainly: Pentetrazol-induced convulsions in rats. The format is in vivo, rat. As to conditions: for animals manifesting convulsions: 30 minutes before pentetrazol 80 mg/kg i.p. Here is the method:
The method proposed by Goodman L. S. et al. (J. Pharmacol. Test Ther. 108:168; 1958) was used. […] After 30 minutes, pentylene tetrazol (80 mg/kg i.p.) was administered. The number of animals from each group who manifested at least one convulsion during the 30 minutes after injection was counted. The differences between treatments were statistically analyzed using the chi-square/Fisher exact test.

In data set [3] the test system is bicucullin-induced convulsions. Kind of data set: Bicucullin-induced convulsions in rats. The format is in vivo, rat. To be noted: for protection against convulsions: percent compared with controls; for animals showing convulsions: 1 hour before bicuculline 4.5 mg/kg i.p., FIG. 4. Here is the method:
The method described by Curtis D. R. et al. (Brain Res. 34:301; 1971), herein incorporated by reference in its entirety, was used in modified form.
One hour later, bicuculline was administered by intraperitoneal route at a dose of 4.5 mg/kg dissolved in 10 ml/kg NSS. The number of animals manifesting any type of convulsion was then counted. The protection conferred by the treatments was then calculated as percent compared with the controls. The statistical significance of the differences was analyzed using the Yates chi-square test.

Data set [4] has as its system GABA receptors. As to conditions: cited from earlier work.
The test system of data set [5] is rats. Put plainly: Open field behavior test. The class given is in vivo, rat. The text has this: The open-field behavior test relies on the observation that rats exposed to a novel open environment display behaviors (exploratory ambulation, rearing, and dropping fecal boluses) that are thought to be naturally defensive and anticipatory of potential threats in the environment. Pharmacologic interventions that attenuate these behaviors may have utility in modifying pathologic fear or stress responses in a clinical context.

Data set [6] has as its system isoniazide-induced convulsions. Kind of data set: Isoniazide-induced convulsions in rats. The format is in vivo, rat. As to conditions: 1 hour prior to isoniazide 100 mg/kg i.p. As for the experimental part: The method of Reilly R. H. et al. (JAMA 152(14):1317; 1953), herein incorporated by reference in its entirety, was used in modified form. […] Both the ED50 and ED84 were calculated. In the second part of the test, the ED84 was administered at different times (0.5-1.0-1.5-2.0-3.0 hours) prior to isoniazide administration for the purpose of determining the duration of action and the curve of kinetic activity. Female rats fasted for 17 hours were used for the test.

Data set [7] deals with mouse. As to conditions: intravenous route; cited from earlier work.
Data set [8] deals with CRH mRNA. As to conditions: sustained treatment, hypothalamus and cerebral cortex of rats; cited from earlier work.
Data set [9] has as its system CRH. Put plainly: CRH concentration in hypothalamus and cerebral cortex, foot-shock stress. The format is in vivo, rat. The text has this: As mentioned above, stress is known to be associated with release of CRH from the hypothalamus and activation of the HPA axis. This is paralleled by changes in the CRH content of different brain regions and alterations in the expression of messenger RNA (mRNA) for CRH.

For data set [10], the system named is strychnine-induced mortality. To be noted: for type of antagonism of strychnine from slope of dose/mortality line: 100 mg/Kg i.p. pretreatment. As for the experimental part: Strychnine causes muscular convulsions and eventual death through asphyxia or sheer exhaustion in mammals.
Strychnine was administered i.p., dissolved in normal saline at a constant volume of 10 ml/kg. […] The number of deaths was recorded, starting 15 minutes after administration. Using data on deaths at each dose, the LD50, the 95% confidence intervals, and the line slope S were calculated.

The test system of data set [11] is rats. Kind of data set: Water maze test. The class given is in vivo, rat. As to conditions: 100 mg/Kg. Here is the method: The water maze test is designed to test the effect of drugs on learning and performance in a task that is performed under a stressful condition. After several trials under control conditions, rats learn to exit the water maze with greater speed and with fewer errors. Performance in this test can be improved by drugs that either reduce stress and/or enhance learning (e.g. muscarinic agonists). On the contrary, drugs that impair learning (e.g. scopolamine) can worsen performance. […] This indicates improved learning and retention.

Data set [12] concerns rat. To be noted: in vivo, ip; cited from earlier work.
Data set [13] deals with mice. Kind of data set: Rota-rod test. The class given is in vivo, mouse. To be noted: 100 mg/Kg, versus untreated mice, FIG. 8A. An excerpt:
Motor performance can be tested by measuring the length of time an animal can remain on a slowly rotating cylinder, as in the rota-rod test.

Data set [14] has as its system aged mice. Put plainly: Taut thread test. The class given is in vivo, mouse. Here is the method: In this test, aged mice are required to traverse a thread stretched between two points. Performance is measured by the time taken to reach the end and the number of resting positions adopted during the test.
In data set [15] the test system is mouse. As to conditions: cited from earlier work.

Where two headings read alike, the source gives them in different places.

`CCC1(c2ccccc2)C(=O)NC(=O)NC1=O` [luminal sodium]: in data set [1] (luminal sodium 10 mg/Kg i.p.), the “tonic and clonic convulsions in response to electric shock” value is “completely blocked”. For the same molecule, the animals manifesting convulsions entry in data set [2] (10 mg/kg i.p.) is on record as “None”. Moreover, the protection against convulsions in data set [3] (20 mg/kg orally) turned out to be 100%.

Consider `CC(C)(C)C(=O)NCCCC(=O)O` [pivagabine, 4-[(2,2-dimethyl-1-oxopropyl)amino]butanoic acid], for which the “binding to GABA receptors” value in [4] is on record as “does not appear to bind to GABA receptors”. Besides, the “number of rearing movements” value in data set [5] (50 and 100 mg/Kg i.p., FIG. 6B) was “significantly reduced”. Moreover, in data set [5] (FIG. 6A), the “ambulation, number of sectors explored per unit time” value is reported as “significant decrease”. Moreover, the “defecation, number of fecal boluses produced” value in data set [5] (FIG. 6C) was “significant decrease”. In addition, the protection against seizures in data set [6] (highest dose (oral doses 25-50-100-200 mg/Kg), FIG. 5) worked out at 90%. Besides, in [6] (oral 25-50-100-200 mg/Kg), the “anticonvulsive effect, dose-effect relationship” value is “dose-related increase”. In data set [7], the LD50 is listed as 1750 mg/kg. Further, in data set [8], the “abundance of CRH mRNA” value is recorded as “increases the abundance of CRH mRNA”. In addition, in data set [1] (100 or 200 mg/Kg i.p., FIG. 1), the “number of tonic convulsions in response to electric shock” value is listed as “significantly reduced”. Moreover, in data set [9] (pivagabine alone (no foot shock), cerebral cortex), the “effect on CRH concentration in the cerebral cortex” value was “no effect”. In addition, the “reduction of CRH concentration in the hypothalamus” value in data set [9] (pivagabine alone (no foot shock), hypothalamus) is 52%. Further, the “effects of foot-shock stress on CRH concentration” value in data set [9] (subchronic treatment, hypothalamus and cerebral cortex, FIGS. 12A and 12B) is on record as “prevented the effects of foot-shock stress”. This molecule also showed an animals manifesting convulsions in [2] (100 mg/kg i.p., p<0.01, FIG. 3) of 30%. For the same molecule, the “effect on LD50 of strychnine” value in data set [10] (100 mg/Kg i.p. 30 minutes prior to strychnine i.p., mice, FIG. 2) is given as “raised the LD50 of strychnine”. Moreover, the “type of antagonism of strychnine from slope of dose/mortality line” value in data set [10] (mice) is “nonspecific antagonism”. The “performance in later sessions” value in data set [11] (days 4 and 5) is “tended to be superior to that of controls”. The “time to exit and number of errors made” value in data set [11] (rats) is recorded as “performed as well as the control group”. Besides, the results for the animals showing convulsions in data set [3] (100 mg/kg orally) and in [3] (200 mg/kg orally) were 4/10 and 1/10, respectively. The protection against convulsions in data set [3] (high dose 200 mg/kg orally) was determined as 90%. Further, in [12], the “dose up to which no toxic effects were observed” value was 1000 mg/kg. In addition, in data set [13], the “time remaining on the rotating cylinder” value is given as “significantly longer”. In [14] (FIG. 9B), the “number of resting positions adopted” value was “significantly less”. In data set [14] (versus control mice, FIG. 9A), the “time taken to traverse the thread” value was “significantly faster”. For the same molecule, the “anti-depressive and anxiolytic activity” value in [15] is “a certain anti-depressive and anxiolytic activity”.

For the molecule `Cc1ccccc1OCC(O)CO` (stereo not drawn) [mephenesine], the “type of antagonism of strychnine from slope of dose/mortality line” value in [10] (mice) is reported as “competitive antagonism”. In addition, in data set [10] (mouse, in vivo), the “effect on LD50 of strychnine” value is recorded as “raised the LD50 of strychnine”.

`NCCCC(=O)O` [GABA]: the anticonvulsant effect entry in data set [2] (50 or 100 mg/kg i.p. (either dose), pentetrazol 80 mg/kg i.p.) is “no anticonvulsant effect”. The protection against convulsions came to 20% in data set [3] (high dose 200 mg/kg orally) and 10% in data set [3] (low dose 100 mg/kg orally).

Broadly, the LD50 is the dose at which mortality reaches 50%.
